Results from PubChem BioAssay AID1919008 (Molecular Pharmacology Branch, DTP, NCI, 2023).

Test system: DMS-114 complex spheroids with HUVEC/MSC, growth % test/control
Test: Anticancer human tumor DMS-114 cell line growth inhibition [AhR];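 further: spheroids exposed to agents for 7 days before readout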;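 on viability, T/C: 100% = DMSO vehicle control wells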
Conditions: for IC50: curve of first compound; for viability, T/C: stronger effect = lower value
Summary of the method: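 Complex tumor spheroids co-cultured with HUVEC and human MSC stroma; AhR antagonists tested in combination with standard-of-care and investigational agents. Top concentration at or near clinical Cmax (else 10 microM), half-log dilutions; growth expressed as percent test/control.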

[1] = second compound 0.1 µM, first compound 0.0316 µM
[2] = second compound 0.1 µM, first compound 0.1 µM
[3] = second compound 0.1 µM, first compound 0.316 µM
[4] = second compound 0.1 µM, first compound 1 µM
[5] = second compound 0.1 µM, first compound 3.16 µM
[6] = second compound 0.1 µM, first compound 10 µM
[7] = second compound 0.316 µM, first compound 0.0316 µM
[8] = second compound 0.316 µM, first compound 0.1 µM
[9] = second compound 0.316 µM, first compound 0.316 µM
[10] = second compound 0.316 µM, first compound 1 µM
[11] = second compound 0.316 µM, first compound 3.16 µM
[12] = second compound 0.316 µM, first compound 10 µM
[13] = second compound 1 µM, first compound 0.0316 µM
[14] = second compound 1 µM, first compound 0.1 µM
[15] = second compound 1 µM, first compound 0.316 µM
[16] = second compound 1 µM, first compound 1 µM
[17] = second compound 1 µM, first compound 3.16 µM
[18] = second compound 1 µM, first compound 10 µM
[19] = second compound 3.16 µM, first compound 0.0316 µM
[20] = second compound 3.16 µM, first compound 0.1 µM
[21] = second compound 3.16 µM, first compound 0.316 µM
[22] = second compound 3.16 µM, first compound 1 µM
[23] = second compound 3.16 µM, first compound 3.16 µM
[24] = second compound 3.16 µM, first compound 10 µM
[25] = second compound 10 µM, first compound 0.0316 µM
[26] = second compound 10 µM, first compound 0.1 µM
[27] = second compound 10 µM, first compound 0.316 µM
[28] = second compound 10 µM, first compound 1 µM
[29] = second compound 10 µM, first compound 3.16 µM
[30] = second compound 10 µM, first compound 10 µM

Nc1ccccc1NC(=O)c1ccc(CNC(=O)OCc2cccnc2)cc1 + Cc1ccccc1N=Nc1ccc(NC(=O)c2ccnn2C)c(C)c1
IC50 (second compound 0.1 µM): 2220 nM | IC50 (second compound 0.316 µM): 2410 nM | IC50 (second compound 1 µM): 2340 nM | IC50 (second compound 3.16 µM): 2460 nM | IC50 (second compound 10 µM): 2410 nM | viability, T/C [1]: 91.5% | viability, T/C [2]: 102% | viability, T/C [3]: 91.5% | viability, T/C [4]: 72.9% | viability, T/C [5]: 40.1% | viability, T/C [6]: 23.3% | viability, T/C [7]: 95.7% | viability, T/C [8]: 102% | viability, T/C [9]: 94.8% | viability, T/C [10]: 72.5% | viability, T/C [11]: 43.7% | viability, T/C [12]: 23.1% | viability, T/C [13]: 91.8% | viability, T/C [14]: 95.9% | viability, T/C [15]: 90% | viability, T/C [16]: 73.4% | viability, T/C [17]: 41.8% | viability, T/C [18]: 25.1% | viability, T/C [19]: 98.6% | viability, T/C [20]: 88.7% | viability, T/C [21]: 84.5% | viability, T/C [22]: 68.8% | viability, T/C [23]: 43.9% | viability, T/C [24]: 23.5% | viability, T/C [25]: 91.6% | viability, T/C [26]: 87.3% | viability, T/C [27]: 85.5% | viability, T/C [28]: 72.8% | viability, T/C [29]: 42.9% | viability, T/C [30]: 26.1%

O=C(C=Cc1cccc(S(=O)(=O)Nc2ccccc2)c1)NO + Cc1ccccc1N=Nc1ccc(NC(=O)c2ccnn2C)c(C)c1
IC50 (second compound 0.1 µM): 1850 nM | IC50 (second compound 0.316 µM): 1720 nM | IC50 (second compound 1 µM): 1750 nM | IC50 (second compound 3.16 µM): 1660 nM | IC50 (second compound 10 µM): 1670 nM | viability, T/C [1]: 101% | viability, T/C [2]: 101% | viability, T/C [3]: 96.1% | viability, T/C [4]: 74.5% | viability, T/C [5]: 27.4% | viability, T/C [6]: 30.3% | viability, T/C [7]: 96.6% | viability, T/C [8]: 95.2% | viability, T/C [9]: 101% | viability, T/C [10]: 68.8% | viability, T/C [11]: 30.1% | viability, T/C [12]: 27.4% | viability, T/C [13]: 99% | viability, T/C [14]: 102% | viability, T/C [15]: 94.7% | viability, T/C [16]: 71.1% | viability, T/C [17]: 26.4% | viability, T/C [18]: 29.1% | viability, T/C [19]: 101% | viability, T/C [20]: 97.5% | viability, T/C [21]: 91.2% | viability, T/C [22]: 66% | viability, T/C [23]: 28.7% | viability, T/C [24]: 28.7% | viability, T/C [25]: 88.7% | viability, T/C [26]: 96.1% | viability, T/C [27]: 86.5% | viability, T/C [28]: 65.8% | viability, T/C [29]: 29.5% | viability, T/C [30]: 29.9%

O=C(c1cc(Cc2n[nH]c(=O)c3ccccc23)ccc1F)N1CCN(C(=O)C2CC2)CC1 + Cc1ccccc1N=Nc1ccc(NC(=O)c2ccnn2C)c(C)c1
IC50 (second compound 0.1 µM): > 10000 nM | IC50 (second compound 0.316 µM): > 10000 nM | IC50 (second compound 1 µM): > 10000 nM | IC50 (second compound 3.16 µM): > 10000 nM | IC50 (second compound 10 µM): > 10000 nM | viability, T/C [1]: 109% | viability, T/C [2]: 107% | viability, T/C [3]: 103% | viability, T/C [4]: 111% | viability, T/C [5]: 110% | viability, T/C [6]: 97.5% | viability, T/C [7]: 122% | viability, T/C [8]: 109% | viability, T/C [9]: 112% | viability, T/C [10]: 105% | viability, T/C [11]: 97.9% | viability, T/C [12]: 94.7% | viability, T/C [13]: 113% | viability, T/C [14]: 95.8% | viability, T/C [15]: 111% | viability, T/C [16]: 105% | viability, T/C [17]: 102% | viability, T/C [18]: 105% | viability, T/C [19]: 105% | viability, T/C [20]: 111% | viability, T/C [21]: 94.7% | viability, T/C [22]: 102% | viability, T/C [23]: 94.2% | viability, T/C [24]: 103% | viability, T/C [25]: 87.2% | viability, T/C [26]: 103% | viability, T/C [27]: 87.2% | viability, T/C [28]: 91.2% | viability, T/C [29]: 88.3% | viability, T/C [30]: 81%
